Measured values as given in patent publication US20230399341A1, “7-PHENYL SUBSTITUTED 2-AMINOQUINAZOLINE INHIBITORS OF HPK1” (MERCK SHARP & DOHME LLC, priority 2020, published 2023).

Molecular target: T1, Human HPK1, catalytic domain (Homo sapiens, UniProt Q92918)
T1 sequence (Q92918 1-346): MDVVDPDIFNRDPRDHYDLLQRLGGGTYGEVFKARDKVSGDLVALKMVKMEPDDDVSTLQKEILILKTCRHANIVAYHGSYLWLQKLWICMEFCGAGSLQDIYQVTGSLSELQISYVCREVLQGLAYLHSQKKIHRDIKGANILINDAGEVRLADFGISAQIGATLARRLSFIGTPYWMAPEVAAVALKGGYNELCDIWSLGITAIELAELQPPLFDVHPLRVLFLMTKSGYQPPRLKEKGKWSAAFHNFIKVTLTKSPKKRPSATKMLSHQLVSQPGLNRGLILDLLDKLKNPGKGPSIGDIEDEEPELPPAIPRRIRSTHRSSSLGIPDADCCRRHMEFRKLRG
Test: HPK1-SLP76 TR-FRET Assay
Assay type: biochemical
Details: 75 pM HPK1, ATP 10 uM, SLP76 10 nM, 30 min pre-incubation, 60 min reaction

| IC50 [nM] | Structure (SMILES) |
| --- | --- |
| 365 | COc1cc2c(cc1Nc1ncc3ccc(NCC4CC(=O)N(C)C4)cc3n1)CN(C)CC2 (racemic) [Compound 3-59, (S and R)-4-[({2-[(6-methoxy-2-methyl-1,2,3,4-tetrahydroiso-quinolin-7-yl)amino]quinazolin-7-yl}amino)methyl]-1-methyl-pyrrolidin-2-one] |
| 807 | COc1cc2c(cc1Nc1ncc3ccc(N4CC5CCS(=O)(=O)C5C4)cc3n1)CN(C)CC2 (racemic) [Compound 3-60, (±)-5-{2~-[(6-methoxy-2-meth-yl-1,2,3,4-tetrahydroisoquinolin-7-yl)amino]quinazolin-7-yl}-hexahydro-1lambda~6~-thieno-[2,3-c]pyrrole-1,1(2H)-dione] |
| 470 | COc1cc2c(cc1Nc1ncc3ccc(NC4CCCOC4)cc3n1)CN(C)CC2 (racemic) [Compound 3-69, (S and R)-N-2~-(6-methoxy-2-methyl-1,2,3,4-tetrahydroiso-quinolin-7-yl)-N~7~-(oxan-3-yl)quinazoline-2,7-diamine] |
| 90.1 | COc1cc2c(cc1Nc1ncc3ccc(NCC4(C)CCOC4)cc3n1)CN(C)CC2 (racemic) [Compound 3-75, (S and R)-N~2~-(6-methoxy-2-methyl-1,2,3,4-tetrahydroiso-quinolin-7-yl)-N~7~-[(3-meth-yloxolan-3-yl)methyl]quinaz-oline-2,7-diamine] |
| 0.125 | CC(=O)NC1CCc2cc(Nc3ncc4c(N)c(F)c(-c5cnc6c(c5C)NCCO6)cc4n3)ccc21 (single isomer, unassigned) [Compound 2-10, (S or R)—N-(5-((5-amino-6-fluoro-7-(8-methyl-2,3-dihydro-1H-pyrido[2,3-b][1,4]oxazin-7-yl)quinazolin-2-yl)amino)-2,3-dihydro-1H-inden-1-yl)acetamide] |
| 0.0821 | CC(=O)NC1CCc2cc(Nc3ncc4c(N)c(F)c(-c5cnc6c(c5C)NCCO6)cc4n3)ccc21 (single isomer, unassigned) [Compound 2-11, (S or R)—N-(5-((5-amino-6-fluoro-7-(8-methyl-2,3-dihydro-1H-pyrido[2,3-b][1,4]oxazin-7-yl)quinazolin-2-yl)amino)-2,3-dihydro-1H-inden-1-yl)acetamide] |
| 0.149 | CC(=O)N1CCCC1c1ccc(Nc2ncc3c(N)c(F)c(-c4cnc5c(c4C)NCCO5)cc3n2)cc1 (single isomer, unassigned) [Compound 2-28, (R or S)-1-[2-(4-{[5-amino-6-fluoro-7-(8-methyl-2,3-dihydro-1H-pyrido[2,3-b][1,4]oxazin-7-yl)quinazolin-2-yl]amino}phenyl)pyrrolidin-1-yl]ethan-1-one] |
| 0.273 | CC(=O)N1CCCC1c1ccc(Nc2ncc3c(N)c(F)c(-c4cnc5c(c4C)NCCO5)cc3n2)cc1 (single isomer, unassigned) [Compound 2-29, (R or S)-1-[2-(4-{[5-amino-6-fluoro-7-(8-methyl-2,3-dihydro-1H-pyrido[2,3-b][1,4]oxazin-7-yl)quinazolin-2-yl]amino}phenyl)pyrrolidin-1-yl]ethan-1-one] |
| 0.152 | COc1cc2c(cc1Nc1ncc3c(N)c(F)c(-c4cnc5c(c4C)NCCO5)cc3n1)C(C)N(C)CC2 (single isomer, unassigned) [Compound 2-35, (S or R)-6-fluoro-N^2-(6-methoxy-1,2-dimethyl-1,2,3,4-tetrahydroisoquinolin-7-yl)-7-(8-methyl-2,3-dihydro-1H-pyrido[2,3-b][14]oxazin-7-yl)quinazoline-2,5-diamine] |
| 0.101 | COc1cc2c(cc1Nc1ncc3c(N)c(F)c(-c4cnc5c(c4C)NCCO5)cc3n1)C(C)N(C)CC2 (single isomer, unassigned) [Compound 2-36, (S or R)-6-fluoro-N^2-(6-methoxy-1,2-dimethyl-1,2,3,4-tetrahydroisoquinolin-7-yl)-7-(8-methyl-2,3-dihydro-1H-pyrido[2,3-b][1,4]oxazin-7-yl)quinazoline-2,5-diamine] |
| 0.0784 | COc1cc(C2CCN(C)C2=O)ccc1Nc1ncc2c(N)c(F)c(-c3cnc4c(c3C)NCCO4)cc2n1 (single isomer, unassigned) [Compound 2-54, (R or S)-3-(4-{[5-amino-6-fluoro-7-(8-methyl-2,3-dihydro-1H-pyrido[2,3-b][1,4]oxazin-7-yl)quinazolin-2-yl]amino}-3-methoxyphenyl)-1-methylpyrrolidin-2-one] |

The remaining lines, values behind:

| Structure (SMILES) | IC50 [nM] |
| --- | --- |
| CNC(=O)C(C)c1ccc(Nc2ncc3cc(F)c(-c4cnc5c(c4C)NCCO5)cc3n2)cc1 (single isomer, unassigned) [Compound 1-116, (R or S)-2-(4-{[6-fluoro-7-(8-methyl-2,3-dihydro-1H-pyrido[2,3-b][1,4]oxazin-7-yl)quinazolin-2-yl]amino}phenyl)-N-methylpropanamide] | 0.221 |
| CNC(=O)C(C)c1ccc(Nc2ncc3cc(F)c(-c4cnc5c(c4C)NCCO5)cc3n2)cc1 (single isomer, unassigned) [Compound 1-117, (R or S)-2-(4-{[6-fluoro-7-(8-methyl-2,3-dihydro-1H-pyrido[2,3-b][1,4]oxazin-7-yl)quinazolin-2-yl]amino}phenyl)-N-methylpropanamide] | 0.0705 |
| CNC(=O)C1CCc2cc(Nc3ncc4cc(F)c(-c5cnc6c(c5C)NCCO6)cc4n3)ccc21 (single isomer, unassigned) [Compound 1-118, (R or S)-5-{[6-fluoro-7-(8-methyl-2,3-dihydro-1H-pyrido[2,3-b][1,4]oxazin-7-yl)quinazolin-2-yl]amino}-N-methyl-2,3-dihydro-1H-indene-1-carboxamide] | 0.0363 |
| CNC(=O)C1CCc2cc(Nc3ncc4cc(F)c(-c5cnc6c(c5C)NCCO6)cc4n3)ccc21 (single isomer, unassigned) [Compound 1-119, (R or S)-5-{[6-fluoro-7-(8-methyl-2,3-dihydro-1H-pyrido[2,3-b][1,4]oxazin-7-yl)quinazolin-2-yl]amino}-N-methyl-2,3-dihydro-1H-indene-1-carboxamide] | 1.17 |
| Cc1c(-c2cc3nc(Nc4ccc(C(C)S(C)(=O)=O)cc4)ncc3cc2F)cnc2c1NCCO2 (single isomer, unassigned) [Compound 1-124, (R or S)-6-fluoro-7-(8-methyl-2,3-dihydro-1H-pyrido[2,3-b][1,4]oxazin-7-yl)-N-{4-[1-(methylsulfonyl)ethyl]phenyl} quinazolin-2-amine] | 0.0411 |
| Cc1c(-c2cc3nc(Nc4ccc(C5CCN(C)C5=O)cc4)ncc3cc2F)cnc2c1NCCO2 (single isomer, unassigned) [Compound 1-125, (R or S)-3-(4-{[6-fluoro-7-(8-methyl-2,3-dihydro-1H-pyrido[2,3-b][1,4]oxazin-7-yl)quinazolin-2-yl]amino}phenyl)-1-methylpyrrolidin-2-one] | 0.0606 |
| Cc1c(-c2cc3nc(Nc4ccc(C(C)S(C)(=O)=O)cc4)ncc3cc2F)cnc2c1NCCO2 (single isomer, unassigned) [Compound 1-126, (R of S)-6-fluoro-7-(8-methyl-2,3-dihydro-1H-pyrido[2,3-b][1,4]oxazin-7-yl)-N-{4-[1-(methylsulfonyl)ethyl]phenyl} quinazolin-2-amine] | 0.68 |
| Cc1c(-c2cc3nc(Nc4ccc(C5CCN(C)C5=O)cc4)ncc3cc2F)cnc2c1NCCO2 (single isomer, unassigned) [Compound 1-127, (R of S)-3-(4-{[6-fluoro-7-(8-methyl-2,3-dihydro-1H-pyrido[2,3-b][1,4]oxazin-7-yl)quinazolin-2-yl]amino}phenyl)-1-methylpyrrolidin-2-one] | 0.949 |
